Experimental data from patent US20230365592A1 (Agios Pharmaceuticals, Inc., priority 2022, published 2023).

biological target: T1, human PAH with the R408W mutation (Homo sapiens, UniProt P00439, R408W); experiment: Cell Based Phenylalanine Flux Assay; conditions: A375 cells expressing R408W PAH; 24 hrs with compound, then 20 µM sepiapterin and 800 µM 13C9,15N-Phenylalanine for 4 hours; 13C-Tyrosine by LC-MS; average where tested multiple times; read-out: AC50;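 further: after compound treatment, cells received sepiapterin plus isotope-labelled Phenylalanine for 4 hours, then labelled Tyrosine in the medium was quantified, 10-point 2-fold dilution series run in duplicate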
T1 construct: expressed in transfected cells
T1 sequence (P00439 1-452 R408W): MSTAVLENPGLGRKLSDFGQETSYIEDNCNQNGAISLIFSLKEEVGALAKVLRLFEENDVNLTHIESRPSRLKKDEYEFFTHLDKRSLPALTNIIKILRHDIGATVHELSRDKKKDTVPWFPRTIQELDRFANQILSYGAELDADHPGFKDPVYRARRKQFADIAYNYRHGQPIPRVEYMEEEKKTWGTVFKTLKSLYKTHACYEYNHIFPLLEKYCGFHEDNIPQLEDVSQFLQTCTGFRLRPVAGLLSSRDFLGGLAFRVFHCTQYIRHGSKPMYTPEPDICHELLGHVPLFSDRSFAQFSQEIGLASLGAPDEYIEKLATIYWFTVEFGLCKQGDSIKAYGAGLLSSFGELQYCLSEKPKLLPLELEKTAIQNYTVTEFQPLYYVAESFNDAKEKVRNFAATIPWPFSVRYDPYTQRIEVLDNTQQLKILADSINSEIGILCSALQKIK

Compound	AC50
CC(C)(F)c1nnc(N2CCc3[nH]cnc3C2c2cc3c(F)cccn3n2)o1 (centres unmarked)	1 to 5 µM
Fc1cccn2nc([C@H]3c4nc[nH]c4CCN3c3nnc(-c4cccnc4)o3)cc12 (single isomer, unassigned)	> 5 µM
COc1cccn2nc(C3c4nc[nH]c4CCN3C(=O)c3nnc(-c4cnn(C)c4)o3)cc12 (centres unmarked)	1 to 5 µM
Cc1cccn2nc(C3c4nc[nH]c4CCN3C(=O)c3ocnc3C(F)F)cc12 (centres unmarked)	1 to 5 µM
Fc1ncccc1-c1nnc(N2CCc3[nH]cnc3C2c2cc3c(C(F)(F)F)cccn3n2)o1 (centres unmarked)	1 to 5 µM
Cc1c([C@@H]2c3nc[nH]c3CCN2C(=O)c2nnc(-c3cnn(C)c3C)o2)nn2ccccc12 (single isomer, unassigned)	1 to 5 µM
Cc1cccc2cc([C@H]3c4nc[nH]c4CCN3C(=O)c3ncnn3C)nn12 (single isomer, unassigned)	> 5 µM
Cc1ccc2c(C(=O)N3CCc4[nH]cnc4C3c3cc4cccc(C(F)(F)F)n4n3)cnn2c1 (centres unmarked)	1 to 5 µM
O=C(c1cnco1)N1CCc2[nH]cnc2C1c1cc2cc(C(F)(F)F)ccn2n1 (centres unmarked)	1 to 5 µM

same assay, conditions: A375 cells expressing human PAH R408W; 24 hrs compound incubation; 13C-Tyrosine by LC-MS; average where tested multiple times; read-out: AC50

Compound	AC50
CC(F)(F)c1nnc(N2CCc3[nH]cnc3[C@H]2c2cc3cccc(Cl)n3n2)o1 [Example 2327, (S)-2-(4-(7-chloropyrazolo[1,5-a]pyridin-2-yl)-1,4,6,7-tetrahydro-5H-imidazo[4,5-c]pyridin-5-yl)-5-(1,1-difluoroethyl)-1,3,4-oxadiazole]	1 to 5 µM
O=C(c1nc2ccccc2s1)N1CCc2[nH]cnc2[C@@H]1c1cc2c(F)cccn2n1 [Example 2003, (R)-benzo[d]thiazol-2-yl(4-(4-fluoropyrazolo[1,5-a]pyridin-2-yl)-1,4,6,7-tetrahydro-5H-imidazo[4,5-c]pyridin-5-yl)methanone]	> 5 µM
CC(C)c1cccn2nc([C@@H]3c4nc[nH]c4CCN3C(=O)c3nnc(C(C)(C)F)o3)cc12 [Example 1884, (S)-(5-(2-fluoropropan-2-yl)-1,3,4-oxadiazol-2-yl)(4-(4-isopropylpyrazolo[1,5-a]pyridin-2-yl)-1,4,6,7-tetrahydro-5H-imidazo[4,5-c]pyridin-5-yl)methanone]	< 0.5 µM
Cc1cccn2nc([C@@H]3c4nc[nH]c4CCN3c3nnc(C(C)(F)F)o3)cc12 [Example 2193, (S)-2-(1,1-difluoroethyl)-5-(4-(4-methylpyrazolo[1,5-a]pyridin-2-yl)-1,4,6,7-tetrahydro-5H-imidazo[4,5-c]pyridin-5-yl)-1,3,4-oxadiazole]	< 0.5 µM
Cc1cccnc1-c1nnc(N2CCc3[nH]cnc3[C@@H]2c2cc3cccc(C)n3n2)o1 [Example 2308, (R)-2-(4-(7-methylpyrazolo[1,5-a]pyridin-2-yl)-1,4,6,7-tetrahydro-5H-imidazo[4,5-c]pyridin-5-yl)-5-(3-methylpyridin-2-yl)-1,3,4-oxadiazole]	> 5 µM
Cn1cc(-c2ccc3c(C(=O)N4CCc5[nH]cnc5[C@H]4c4cc5c(F)cccn5n4)cnn3c2)cn1 [Example 2434, (S)-(4-(4-fluoropyrazolo[1,5-a]pyridin-2-yl)-6,7-dihydro-1H-imidazo[4,5-c]pyridin-5(4H)-yl)(6-(1-methyl-1H-pyrazol-4-yl)pyrazolo[1,5-a]pyridin-3-yl)methanone]	1 to 5 µM
FC(F)(F)c1ccc(N2CCc3[nH]cnc3[C@H]2c2cc3c(C4CC4)cccn3n2)nc1 [Example 2170, (S)-4-(4-cyclopropylpyrazolo[1,5-a]pyridin-2-yl)-5-(5-(trifluoromethyl)pyridin-2-yl)-4,5,6,7-tetrahydro-1H-imidazo[4,5-c]pyridine]	< 0.5 µM
Cc1cccn2nc([C@@H]3c4nc[nH]c4CCN3c3nnc(C(C)(C)C)o3)cc12 [Example 1799, (S)-2-(tert-butyl)-5-(4-(4-methylpyrazolo[1,5-a]pyridin-2-yl)-6,7-dihydro-1H-imidazo[4,5-c]pyridin-5(4H)-yl)-1,3,4-oxadiazole]	0.5 to 1 µM
Cc1cc(-c2nnc(C(=O)N3CCc4[nH]cnc4[C@H]3c3cc4c(C)cccn4n3)o2)n[nH]1 [Example 2291, (S)-(5-(5-methyl-1H-pyrazol-3-yl)-1,3,4-oxadiazol-2-yl)(4-(4-methylpyrazolo[1,5-a]pyridin-2-yl)-1,4,6,7-tetrahydro-5H-imidazo[4,5-c]pyridin-5-yl)methanone]	1 to 5 µM

same assay, conditions: A375 cells expressing human R408W PAH; 24 hrs compound incubation; 13C-Tyrosine by LC-MS; average where tested multiple times; read-out: AC50

Compound	AC50
Cc1ccc2c(C(=O)N3CCc4[nH]cnc4[C@@H]3c3cc4cccc(F)n4n3)cnn2c1 [Example 1787, (R)-(4-(7-fluoropyrazolo[1,5-a]pyridin-2-yl)-6,7-dihydro-1H-imidazo[4,5-c]pyridin-5(4H)-yl)(6-methylpyrazolo[1,5-a]pyridin-3-yl)methanone]	1 to 5 µM
O=C(c1ccnn1C(F)F)N1CCc2[nH]cnc2[C@H]1c1cc2cc(C(F)(F)F)ccn2n1 [Example 1132, (S)-(1-(difluoromethyl)-1H-pyrazol-5-yl)(4-(5-(trifluoromethyl)pyrazolo[1,5-a]pyridin-2-yl)-6,7-dihydro-1H-imidazo[4,5-c]pyridin-5(4H)-yl)methanone]	< 0.5 µM
Cn1ncnc1C(=O)N1CCc2[nH]cnc2[C@H]1c1cc2c(F)cccn2n1 [Example 840, (S)-(4-(4-fluoropyrazolo[1,5-a]pyridin-2-yl)-6,7-dihydro-1H-imidazo[4,5-c]pyridin-5(4H)-yl)(1-methyl-1H-1,2,4-triazol-5-yl)methanone]	0.5 to 1 µM
CC(C)(F)c1nnc(C(=O)N2CCc3[nH]cnc3[C@@H]2c2cc3c(C(F)F)cccn3n2)o1 [Example 1351, (R)-(4-(4-(difluoromethyl)pyrazolo[1,5-a]pyridin-2-yl)-6,7-dihydro-1H-imidazo[4,5-c]pyridin-5(4H)-yl)(5-(2-fluoropropan-2-yl)-1,3,4-oxadiazol-2-yl)methanone]	> 5 µM
FC(F)(F)c1cnc(N2CCc3[nH]cnc3[C@H]2c2cc3c(C(F)(F)F)cccn3n2)nc1 [Example 1774, (S)-4-(4-(trifluoromethyl)pyrazolo[1,5-a]pyridin-2-yl)-5-(5-(trifluoromethyl)pyrimidin-2-yl)-4,5,6,7-tetrahydro-1H-imidazo[4,5-c]pyridine]	< 0.5 µM
Cc1cccc2cc([C@@H]3c4nc[nH]c4CCN3C(=O)c3nnc(C4CCC4)o3)nn12 [Example 1562, (S)-(5-cyclobutyl-1,3,4-oxadiazol-2-yl)(4-(7-methylpyrazolo[1,5-a]pyridin-2-yl)-6,7-dihydro-1H-imidazo[4,5-c]pyridin-5(4H)-yl)methanone]	0.5 to 1 µM
CC(C)(C)c1nnc(C(=O)N2CCc3[nH]cnc3[C@H]2c2cc3cccc(F)n3n2)o1 [Example 1249, (S)-(5-(tert-butyl)-1,3,4-oxadiazol-2-yl)(4-(7-fluoropyrazolo[1,5-a]pyridin-2-yl)-6,7-dihydro-1H-imidazo[4,5-c]pyridin-5(4H)-yl)methanone]	< 0.5 µM
COCc1ccc2c(C(=O)N3CCc4[nH]cnc4[C@H]3c3cc4c(C(F)(F)F)cccn4n3)cnn2c1 [Example 1548, (S)-(6-(methoxymethyl)pyrazolo[1,5-a]pyridin-3-yl)(4-(4-(trifluoromethyl)pyrazolo[1,5-a]pyridin-2-yl)-6,7-dihydro-1H-imidazo[4,5-c]pyridin-5(4H)-yl)methanone]	0.5 to 1 µM
CCOc1cccc2cc([C@H]3c4nc[nH]c4CCN3C(=O)c3oc(C(C)(C)O)nc3C(F)F)nn12 [Example 1244, (R)-(4-(difluoromethyl)-2-(2-hydroxypropan-2-yl)oxazol-5-yl)(4-(7-ethoxypyrazolo[1,5-a]pyridin-2-yl)-6,7-dihydro-1H-imidazo[4,5-c]pyridin-5(4H)-yl)methanone]	1 to 5 µM
Cc1cccc2cc([C@@H]3c4nc[nH]c4CCN3C(=O)c3nnc(C(C)(C)F)o3)nn12 [Example 938, (S)-(5-(2-fluoropropan-2-yl)-1,3,4-oxadiazol-2-yl)(4-(7-methylpyrazolo[1,5-a]pyridin-2-yl)-6,7-dihydro-1H-imidazo[4,5-c]pyridin-5(4H)-yl)methanone]	< 0.5 µM
O=C(c1nnc(-c2ncccc2F)o1)N1CCc2[nH]cnc2[C@H]1c1cc2c(C(F)(F)F)cccn2n1 [Example 905, (S)-(5-(3-fluoropyridin-2-yl)-1,3,4-oxadiazol-2-yl)(4-(4-(trifluoromethyl)pyrazolo[1,5-a]pyridin-2-yl)-6,7-dihydro-1H-imidazo[4,5-c]pyridin-5(4H)-yl)methanone]	< 0.5 µM
Cc1cccc2cc([C@@H]3c4nc[nH]c4CCN3C(=O)c3cnn4cc(N(C)C)ccc34)nn12 [Example 1794, (S)-(6-(dimethylamino)pyrazolo[1,5-a]pyridin-3-yl)(4-(7-methylpyrazolo[1,5-a]pyridin-2-yl)-6,7-dihydro-1H-imidazo[4,5-c]pyridin-5(4H)-yl)methanone]	0.5 to 1 µM
CC1(c2nnc(C(=O)N3CCc4[nH]cnc4[C@@H]3c3cc4c(Cl)cccn4n3)o2)CC1 [Example 1320, (R)-(4-(4-chloropyrazolo[1,5-a]pyridin-2-yl)-6,7-dihydro-1H-imidazo[4,5-c]pyridin-5(4H)-yl)(5-(1-methylcyclopropyl)-1,3,4-oxadiazol-2-yl)methanone]	1 to 5 µM
O=C(c1cnn2cc(-c3ccccn3)ccc12)N1CCc2[nH]cnc2[C@@H]1c1cc2c(F)cccn2n1 [Example 1645, (R)-(4-(4-fluoropyrazolo[1,5-a]pyridin-2-yl)-6,7-dihydro-1H-imidazo[4,5-c]pyridin-5(4H)-yl)(6-(pyridin-2-yl)pyrazolo[1,5-a]pyridin-3-yl)methanone]	> 5 µM
